In patent publication US7112318B2, “Non-invasive diagnostic imaging technology for mitochondria dysfunction using radiolabeled lipophilic salts” (The Johns Hopkins University, priority 2002, dated 2006):
Values joined by “and” are separate entries in the source; they are usually repeats but may differ in a detail not shown here. Equal values may be shown once. Read-outs that look alike come from different tables or passages of the source.

Legend:
myocardium [1] = conditions: cited from earlier work; for myocardial extraction under baseline / normal flow: baseline or normal flow; for myocardial extraction at increased flow: five-fold increases in flow rate / high flow rates
[2] = Biodistribution in mice 60 min after i.v. injection; conditions: 60 min after iv. injection
Experimental: (§1) Three to five mice were used for the biodistribution study of each tracer. Nonanesthetized animals were injected i.v. with tracer solution (FBnTP or FPTP, TPMP 25 μCi; MIBI 40 μCi; TPP 2 μCi, all in a volume of 0.2 mL saline) then killed by neck dislocation at 60 min after injection. The organs and tissues of interest were removed and counted by a radioactivity counter along with standards (1:1000) (LKB Wallac, 1282 Compugamma CS).

[3] = mouse, in vivo, iv, 60 min
Experimental: as §1

FCA-induced inflammation = assay: Accumulation in FCA-induced inflammation tissue and healthy muscle; format: in vivo; conditions: rats, 3 days after administration of FCA
Experimental: 0.1 ml of nitrosomethyl urea (NUM) was introduced i.p in female rats (150 g). When tumor reached an approximate size of 1 to 1.5 cm, FCA was injected (0.15 ml) to the hind limb footpad. Uptake assays were carried out 3 days thereafter. F-18-FBnTP (0.25 mCi) was injected via tail vein. Sixty minutes later tumor, inflamed tissue and healthy muscle tissue of the opposite limb (control) were collected on ice, weighed and counted in a gamma counter together with standards.
The accumulation of the novel F-18-phosphonium cations, F-18-FBnTP and F-18-fluoropropyl triphenyl phosphonium (F-18-FPTP) in comparison with F-18-FDG in FCA-induced inflammation and healthy tissue is presented in Table 2. Induction of inflammation and activity counting were carried out as described above.

prostate carcinoma = assay: Tumor selectivity in orthotopic model of prostate carcinoma; format: in vivo; conditions: nude mice, normalized to muscle
Experimental: Methods: 2×10^6 cells were injected, under anesthesia, into the prostate epithelial tissue of nude mice. When tumor reached an approximate size of 5 mm, uptake assays were performed as described above. Tumor selectivity of F-18-FBnTP and F-18-FDG was compared (3 mice in each group)

myocardium [4] = assay: C-11-TPMP uptake kinetics in the myocardium (dog PET, LAD occlusion); format: in vivo
Experimental: We have examined the performance of C-11-triphenyl phosphonium cation (TPMP) for assessing regional myocardial flow in dog using PET (Kraus, 1994).
Methods: Four mCi of C-11-TPMP were introduced i.v., and dynamic images of increasing duration (15 sec to 20 min) were acquired over a total time of 85 min. Images were acquired on the GE 4096+ PET scanner (15 slices, 6.5 mm slice thickness). Images were reconstructed using backprojection, and corrected for attenuation. A detailed description of methods appears in Kraus, 1994.
To investigate the relationship between myocardial blood flow and C-11-TPMP uptake in the heart, the LAD was occluded and the C-11-TPMP accumulation in tissue samples compared to microsphere determined regional myocardial blood flow. A significant correlation (r=0.93, p<0.01) was found at 5 min after LAD occlusion (FIG. 12). The non-infracted/infracted myocardium ratio was 12.1±2.4.

SMILES | myocardial extraction under baseline / normal flow (myocardium [1]) | myocardial extraction at increased flow (myocardium [1]) | biodistribution, blood [2] | biodistribution, brain [2] | biodistribution, heart [2] | biodistribution, kidney [2] | biodistribution, liver [2] | biodistribution, lung [2] | biodistribution, muscle [2] | biodistribution, spleen [2] | Inf/Control (FCA-induced inflammation) | accumulation, Control (healthy muscle) (FCA-induced inflammation) | accumulation, Inflammation (FCA-induced inflammation) | also measured
[99Tc].[C-]#[N+]CC(C)(C)OC.[C-]#[N+]CC(C)(C)OC.[C-]#[N+]CC(C)(C)OC.[C-]#[N+]CC(C)(C)OC.[C-]#[N+]CC(C)(C)OC.[C-]#[N+]CC(C)(C)OC [[^99mTc]MIBI, Tc-99m-sestamibii, reference compound] | about 60% | 40% | 0.26 ± 0.05 % ID/g | 0.08 ± 0.04 % ID/g | 5.08 ± 0.25 % ID/g | 12.6 ± 2.57 % ID/g | 5.55 ± 1.08 % ID/g | 0.98 ± 0.19 % ID/g | 1.56 ± 0.31 % ID/g | 1.27 ± 0.33 % ID/g | – | – | – | –
c1ccc([P+](c2ccccc2)(c2ccccc2)c2ccccc2)cc1 [[^3H]TPP, tetraphenyl phosphonium] | – | – | – | – | – | – | – | – | – | – | – | – | – | biodistribution, blood [3]: 0.09 ± 0.02 % ID/g; biodistribution, brain [3]: 0.06 0.02 % ID/g; biodistribution, heart [3]: 20.7 ± 1.92 % ID/g; biodistribution, kidney [3]: 4.37 ± 0.66 % ID/g; biodistribution, liver [3]: 6.12 ± 1.08 % ID/g; biodistribution, lung [3]: 2.81 ± 0.41 % ID/g; biodistribution, muscle [3]: 2.22 ± 0.41 % ID/g; biodistribution, spleen [3]: 1.93 ± 0.47 % ID/g
[18F]CCC[P+](c1ccccc1)(c1ccccc1)c1ccccc1 [[18F]FPTP, [^18F]3-fluoropropyltriphenyl-phosphonium ion] | – | – | 0.01 ± 0.00 % ID/g | 0.03 ± 0.00 % ID/g | 9.86 ± 0.82 % ID/g | 5.74 ± 0.54 % ID/g | 4.22 ± 1.79 % ID/g | 2.02 ± 0.34 % ID/g | 2.06 ± 0.53 % ID/g | 1.23 ± 0.26 % ID/g | 0.25 ± 0.04 | 0.29 ± 0.06 % ID/g tissue | 0.07 ± 0.01 % ID/g tissue | accumulation, Blood (FCA-induced inflammation): *0.037 ± 0.01 % ID/g tissue
OC[C@H]1OC(O)[C@H]([18F])[C@@H](O)[C@@H]1O (stereo partly drawn) [[^18F]FDG, reference compound] | – | – | – | – | – | – | – | – | – | – | 2.12 ± 0.73 and 1.20 ± 0.29 | 0.68 ± 0.14 % ID/g tissue and 1.05 ± 0.35 % ID/g tissue | 1.42 ± 0.53 % ID/g tissue and 1.20 ± 0.16 % ID/g tissue | uptake ratio of malignant-to-normal prostate tissue (prostate carcinoma): 1.25
[201Tl] [Thallium 201] | about 80% | about 60% | – | – | – | – | – | – | – | – | – | – | – | –
[11CH3][P+](c1ccccc1)(c1ccccc1)c1ccccc1 [[11C]TPMP, C-11-triphenylmethyl phosphonium] | – | – | 0.03 ± 0.00 % ID/g | – | 13.4 ± 0.95 % ID/g | 3.79 ± 0.83 % ID/g | 5.68 ± 0.60 % ID/g | 2.20 ± 0.21 % ID/g | 2.49 ± 0.35 % ID/g | 1.43 ± 0.18 % ID/g | – | – | – | extraction fraction in the heart (myocardium [4]; baseline conditions, flow=69 ml/min/100 g): 91%; decrease of the extraction fraction (myocardium [4]; five-fold increase in flow by adenosine): 39%
